Patent US20240246967A1, “AXL COMPOUNDS” (ARCUS BIOSCIENCES, INC., priority 2021, published 2024)
pIC50: −log10 of the molar value.

Biological target: T1, Axl (Homo sapiens, UniProt P30530)
T1 sequence (P30530 26-894): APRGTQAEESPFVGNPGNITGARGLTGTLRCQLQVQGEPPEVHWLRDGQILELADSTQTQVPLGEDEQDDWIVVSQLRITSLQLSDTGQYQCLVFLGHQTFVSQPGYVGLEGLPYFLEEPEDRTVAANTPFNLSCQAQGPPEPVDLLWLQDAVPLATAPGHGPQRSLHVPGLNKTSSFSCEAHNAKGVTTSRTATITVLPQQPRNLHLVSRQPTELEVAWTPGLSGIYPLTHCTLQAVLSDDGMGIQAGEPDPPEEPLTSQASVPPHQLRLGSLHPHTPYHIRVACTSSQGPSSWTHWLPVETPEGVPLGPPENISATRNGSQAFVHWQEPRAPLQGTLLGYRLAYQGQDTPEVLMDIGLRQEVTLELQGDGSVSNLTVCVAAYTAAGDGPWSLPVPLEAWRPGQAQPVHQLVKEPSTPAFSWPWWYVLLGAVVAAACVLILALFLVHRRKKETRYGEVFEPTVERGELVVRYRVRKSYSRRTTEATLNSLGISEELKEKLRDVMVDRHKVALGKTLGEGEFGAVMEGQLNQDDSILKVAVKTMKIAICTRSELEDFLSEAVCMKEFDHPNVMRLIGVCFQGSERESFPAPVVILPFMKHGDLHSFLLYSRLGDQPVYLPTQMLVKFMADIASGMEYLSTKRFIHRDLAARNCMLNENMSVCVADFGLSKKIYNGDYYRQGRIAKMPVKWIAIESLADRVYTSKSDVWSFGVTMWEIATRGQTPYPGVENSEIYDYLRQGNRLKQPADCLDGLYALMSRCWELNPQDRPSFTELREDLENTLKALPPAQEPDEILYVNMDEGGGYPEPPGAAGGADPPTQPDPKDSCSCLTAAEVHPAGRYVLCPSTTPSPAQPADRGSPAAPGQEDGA
Test: Axl NanoBRET intracellular kinase assay (intracellular binding, Cell Binding)
Parameters: host or cells: HEK-293
Conditions: HEK-293 cells transfected with Axl-NanoLuc fusion vector; 0.35 μM K-5 NanoBRET tracer
Method in brief: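 HEK-293 cells transiently expressing Axl-NanoLuc fusion were pre-incubated with compound for 1 h at 37 °C (0.5% DMSO), then with 0.35 μM K-5 tracer for 2 h. Tracer displacement read as reduced BRET ratio (610/450 nm); IC50 from 4-parameter fit.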

| pIC50 | SMILES |
| --- | --- |
| 6.00 to 7.00 | C[C@H]1CCCN1C1(C)CCc2ccc(-c3cnc4[nH]nc(-c5ccc(C(C)(C)O)c(Cl)c5)c4c3)cc2CC1 (stereo partly drawn) [Example 58, 2-[2-Chloro-4-(5-{7-methyl-7-[(2S)-2-methylpyrrolidin-1-yl]-6,7,8,9-tetrahydro-5H-benzo[7]annulen-2-yl}-1H-pyrazolo[3,4-b]pyridin-3-yl)phenyl]propan-2-ol] |
| > 7.00 | CC(C)(O)c1ccc(-c2n[nH]c3ncc(-c4cc5c(cn4)CCC(N4CCCC4)CC5)cc23)cc1Cl (stereo not shown) [Example 59, 2-(2-Chloro-4-{5-[7-(pyrrolidin-1-yl)-5H,6H,7H,8H,9H-cyclohepta[c]pyridin-3-yl]-1H-pyrazolo[3,4-b]pyridin-3-yl}phenyl)propan-2-ol] |
| < 6.00 | CC(C)(O)c1ccc(-c2n[nH]c3ncc(-c4ccc5c(n4)CCC(N4CCCC4)CC5)cc23)cc1Cl (stereo not shown) [Example 60, 2-(2-Chloro-4-{5-[7-(pyrrolidin-1-yl)-5H,6H,7H,8H,9H-cyclohepta[b]pyridin-2-yl]-1H-pyrazolo[3,4-b]pyridin-3-yl}phenyl)propan-2-ol] |
| < 6.00 | CC(C)(O)c1ccc(-c2n[nH]c3ncc(-c4ccc5c(c4)CC4CCC(C5)C4N4CCCC4)cc23)cc1Cl (stereo not shown) [Example 61, 2-(2-Chloro-4-{5-[13-(pyrrolidin-1-yl)tricyclo[8.2.1.0^3,8]trideca-3,5,7-trien-5-yl]-1H-pyrazolo[3,4-b]pyridin-3-yl}phenyl)propan-2-ol] |
| > 7.00 | C[C@@H]1CCCN1C1CCc2ccc(-c3cnc4[nH]nc(-c5ccc(C6(O)CCC6)c(Cl)c5)c4c3)cc2CC1 (stereo partly drawn) [Example 62, 1-[2-Chloro-4-(5-{7-[(2R)-2-methylpyrrolidin-1-yl]-6,7,8,9-tetrahydro-5H-benzo[7]annulen-2-yl}-1H-pyrazolo[3,4-b]pyridin-3-yl)phenyl]cyclobutan-1-ol] |
| > 7.00 | C[C@@H]1CCCN1C1CCc2ccc(-c3cnc4[nH]nc(-c5ccc(S(N)(=O)=O)c(Cl)c5)c4c3)cc2CC1 (stereo partly drawn) [Example 94, 2-Chloro-4-(5-(7-((R)-2-methylpyrrolidin-1-yl)-6,7,8,9-tetrahydro-5H-benzo[7]annulen-2-yl)-1H-pyrazolo[3,4-b]pyridin-3-yl)benzenesulfonamide] |
| > 7.00 | C[C@@H]1CCCN1C1(C)CCc2ccc(-c3cnc4[nH]nc(-c5ccc(S(N)(=O)=O)cc5)c4c3)cc2CC1 (stereo partly drawn) [Example 95, 4-(5-(7-Methyl-7-((R)-2-methylpyrrolidin-1-yl)-6,7,8,9-tetrahydro-5H-benzo[7]annulen-2-yl)-1H-pyrazolo[3,4-b]pyridin-3-yl)benzenesulfonamide] |
| < 6.00 | CC(C)(O)c1ccc(-c2n[nH]c3ncc(-c4ccc5c(c4)CCC4(CCCN4)CC5)cc23)cc1Cl (stereo not shown) [Example 96, 2-[2-Chloro-4-(5-{5,6,8,9-tetrahydrospiro[benzo[7]annulene-7,2′-pyrrolidin]-3-yl}-1H-pyrazolo[3,4-b]pyridin-3-yl)phenyl]propan-2-ol] |
| < 6.00 | C[C@@H]1CCCN1C1CCc2ccc(-c3cnc4[nH]nc(-c5ccc(C(C)(C)O)cn5)c4c3)cc2CC1 (stereo partly drawn) [Example 97, 2-[6-(5-{7-[(2R)-2-Methylpyrrolidin-1-yl]-6,7,8,9-tetrahydro-5H-benzo[7]annulen-2-yl}-1H-pyrazolo[3,4-b]pyridin-3-yl)pyridin-3-yl]propan-2-ol] |
| 6.00 to 7.00 | C[C@@H]1CCCN1C1(C)CCc2ccc(-c3cnc4[nH]nc(-c5cnc(C(C)(C)O)c(Cl)c5)c4c3)cc2CC1 (stereo partly drawn) [Example 98, 2-[3-Chloro-5-(5-{7-methyl-7-[(2R)-2-methylpyrrolidin-1-yl]-6,7,8,9-tetrahydro-5H-benzo[7]annulen-2-yl}-1H-pyrazolo[3,4-b]pyridin-3-yl)pyridin-2-yl]propan-2-ol] |
| > 7.00 | C[C@@H]1CCCN1C1(C)CCc2ccc(-c3cnc4[nH]nc(-c5ccc(C(=O)N[C@@H]6CCOC6)cc5)c4c3)cc2CC1 (stereo partly drawn) [Example 99, 4-(5-{7-Methyl-7-[(2R)-2-methylpyrrolidin-1-yl]-6,7,8,9-tetrahydro-5H-benzo[7]annulen-2-yl}-1H-pyrazolo[3,4-b]pyridin-3-yl)-N-[(3R)-oxolan-3-yl]benzamide] |
| 6.00 to 7.00 | CCS(=N)(=O)c1ccc(-c2n[nH]c3ncc(-c4ccc5c(c4)CCC(C)(N4CCC[C@H]4C)CC5)cc23)cc1 (stereo partly drawn) [Example 100, Ethyl(imino)[4-(5-{7-methyl-7-[(2R)-2-methylpyrrolidin-1-yl]-6,7,8,9-tetrahydro-5H-benzo[7]annulen-2-yl}-1H-pyrazolo[3,4-b]pyridin-3-yl)phenyl]-λ^6-sulfanone] |
| < 6.00 | C[C@@H]1CCCN1[C@@H]1CCc2cc(-c3cnc4[nH]nc(-c5ccc(S(=O)(=O)C6CC6)cc5)c4c3)cnc2CC1 [Example 101, (2R)-1-(3-{3-[4-(Cyclopropanesulfonyl)phenyl]-1H-pyrazolo[3,4-b]pyridin-5-yl}-5H,6H,7H,8H,9H-cyclohepta[b]pyridin-7-yl)-2-methylpyrrolidine] |
| < 6.00 | C[C@@H]1CCCN1[C@H]1CCc2cc(-c3cnc4[nH]nc(-c5ccc(S(=O)(=O)C6CC6)cc5)c4c3)cnc2CC1 [Example 102, (2R)-1-[(7S)-3-{3-[4-(Cyclopropanesulfonyl)phenyl]-1H-pyrazolo[3,4-b]pyridin-5-yl}-5H,6H,7H,8H,9H-cyclohepta[b]pyridin-7-yl]-2-methylpyrrolidine] |
| 6.00 to 7.00 | COC1CCN(S(=O)(=O)c2ccc(-c3n[nH]c4ncc(-c5ccc6c(c5)CCC(C)(N5CCC[C@H]5C)CC6)cc34)cc2)CC1 (stereo partly drawn) [Example 103, 3-(4-((4-Methoxypiperidin-1-yl)sulfonyl)phenyl)-5-(7-methyl-7-((R)-2-methylpyrrolidin-1-yl)-6,7,8,9-tetrahydro-5H-benzo[7]annulen-2-yl)-1H-pyrazolo[3,4-b]pyridine] |
| > 7.00 | C[C@@H]1CCCN1C1(C)CCc2ccc(-c3cnc4[nH]nc(-c5ccc(S(=O)(=O)N6CCC6)cc5)c4c3)cc2CC1 (stereo partly drawn) [Example 104, (2R)-1-(2-{3-[4-(Azetidine-1-sulfonyl)phenyl]-1H-pyrazolo[3,4-b]pyridin-5-yl}-7-methyl-6,7,8,9-tetrahydro-5H-benzo[7]annulen-7-yl)-2-methylpyrrolidine] |
| > 7.00 | C[C@@H]1CCCN1C1(C)CCc2ccc(-c3cnc4[nH]cc(-c5ccc(S(=O)(=O)C6CC6)cc5)c4c3)cc2CC1 (stereo partly drawn) [Example 105, (2R)-1-(2-{3-[4-(Cyclopropanesulfonyl)phenyl]-1H-pyrrolo[2,3-b]pyridin-5-yl}-7-methyl-6,7,8,9-tetrahydro-5H-benzo[7]annulen-7-yl)-2-methylpyrrolidine] |
| < 6.00 | C[C@@H]1CCCN1C1(C)CCc2ccc(-c3cnc4[nH]nc(-c5ccc(N6CCOCC6)cc5)c4c3)cc2CC1 (stereo partly drawn) [Example 107, 4-[4-(5-{7-Methyl-7-[(2R)-2-methylpyrrolidin-1-yl]-6,7,8,9-tetrahydro-5H-benzo[7]annulen-2-yl}-1H-pyrazolo[3,4-b]pyridin-3-yl)phenyl]morpholine] |
| 6.00 to 7.00 | COCCNCc1ccc(-c2n[nH]c3ncc(-c4ccc5c(c4)CCC(C)(N4CCC[C@H]4C)CC5)cc23)cc1 (stereo partly drawn) [Example 108, (2-Methoxyethyl)({[4-(5-{7-methyl-7-[(2R)-2-methylpyrrolidin-1-yl]-6,7,8,9-tetrahydro-5H-benzo[7]annulen-2-yl}-1H-pyrazolo[3,4-b]pyridin-3-yl)phenyl]methyl})amine] |
